Assay results from publication PMC7112239, “Latency reversal agents modulate HIV antigen processing and presentation to CD8 T cells” (PLoS Pathogens, 2020).
Where no end group is shown, it is not given here.

Key:
[1] = cited from earlier work
Excerpt: We similarly assessed the processing of another HIV fragment, p24-161-24mer, after LRAs or aCD3/CD28 treatments (Fig 3A).

[2] = system: post-proteasomal aminopeptidases; experiment: Aminopeptidase hydrolytic activity in live CD4 T cells (fluorogenic H-Leu-AMC); type: cell-based, human; settings: live primary CD4 T cells of healthy donors, 48 h treatment, versus DMSO; Bryostatin 10 nM, Panobinostat 30 nM; 50 μM H-Leu-AMC, 37°C; n = 8
Protocol: (§1) Romidepsin, Bryostatin, Disulfiram (Sigma), Ingenol-3-angelate (Santa Cruz Biotechnologies), Panobinostat (Selleckchem) were dissolved in DMSO (Fisher Scientific) to make stock solutions. Fresh aliquots were used for each experiment. The final concentrations for each LRA in cell culture were as follows: Panobinostat (30 nM), Romidepsin (40 nM), Disulfiram (500 nM), Bryostatin (10 nM), Ingenol-3-angelate (50 nM). Maximum in vitro stimulation was achieved by addition of anti-CD3/CD28 magnetic beads (Fisher Scientific) at a ratio of 1:1 bead to T cell as in [37]. For combination treatment, both drugs were added at the same time.
The proteasome hydrolytic activities caspase-like (50 μM Z-LLE-AMC; EMD Millipore), tryptic (50 μM Boc-LRR-AMC; Bachem), chymotryptic (50 μM Suc-LLVY-AMC; Bachem), post-proteasomal aminopeptidases (50 μM H-Leu-AMC; Bachem) were measured in 25x10^3 live CD4 T cells at given time points after drug treatment with peptidase-specific fluorogenic substrates as in [37, 40]. […] The rate of fluorescence emission, which is proportional to the proteolytic activity, was measured every 600 s at 37°C in a Victor-3 Plate Reader (Perkin Elmer), as in [37].

[3] = system: CD4 T cell extracts (antigen processing machinery); experiment: In vitro degradation of HIV-1 Gag p24-161-24m in extracts of LRA-treated CD4 T cells, mass spectrometry; type: biochemical, human
Protocol: as §1
(§2) 2 nmol of pure peptide (MGH peptide core facility or Biosynthesis, Texas) was degraded with 15 ug of CD4 T cell extracts at 37°C in pH7.4 degradation buffer as in [37, 40]. Aliquots were taken at various time points and the reaction was stopped by addition of 5% (v/v) of Formic acid (Thermo Scientific) and the degradation products were purified by trichloroacetic acid (Sigma) precipitation (final concentration 5% (v/v)) and identified by in-house mass spectrometry as previously described. Briefly, equal amounts of the purified degradation products were injected into a NanoLC Ultra-HPLC (Eksigent) for salt removal and separation, then online nanosprayed into an LTQ Orbitrap Discovery mass spectrometer (Thermo) for identification. Peptides were separated in a NanoLC column (ChromXP C18, 3 um 120Å; Eksigent) over a gradient of 2–60% buffer B (buffer A: 0.1% (v/v) formic acid in MS-grade water (Fisher Scientific)); buffer B: 0.1% (v/v) formic acid in MS-grade acetonitrile (Fisher Scientific) in 95 min with a conserved flow rate of 250 nl/min. Mass spectra were recorded in the 370–2000 Daltons range. In the tandem mass spectrometry mode, the eight most intense peaks were selected with a window of 1 Dalton and fragmented using helium as collision gas and a voltage of 35 V. Peaks in the mass spectra were searched against the source peptide databases with Proteome Discoverer (version 1.3; Thermo) and quantitatively analyzed. For a given peptide, the integrated area under the peak is proportional to the relative abundance of the peptide in the sample. Each sample was run on the mass spectrometer at least twice.

[4] = system: HIV-infected HLA-B57+ CD4 T cells; experiment: Endogenous processing and presentation assay: CD107a degranulation of epitope-specific CD8 T cells and peptide equivalent; type: cell-based, human; settings: for score of peptide presentation efficiency (peptide equivalent over HIV infection rate) at 24 hours / equivalent peptide presented (TW10, ISW9, KF11) at 24 hpi: 24 hpi; for score of peptide presentation efficiency (peptide equivalent over HIV infection rate) at 24 hours: all 3 epitopes; for equivalent peptide presented (TW10, ISW9, KF11) at 24 hpi: radar plots
[5] = system: CD4 T cell extracts (antigen processing machinery); experiment: In vitro degradation of HIV-1 Gag p24-10-35m in extracts of LRA-treated CD4 T cells, mass spectrometry; type: biochemical, human; settings: for HLA-B57 KF11 epitope production: LRA-treated extracts over matched DMSO, n = 6–10 donors
Protocol: as §1, §2

proteasome = settings: cited from earlier work
Excerpt: Most LRAs selected so far to relieve transcriptional blocks act on signaling pathways and histone acetylation but are not specific to HIV LTR promoters or targeted to the reservoirs, thus their effect should be considered globally on genes and cellular machineries of cell populations.

primary CD4 T cells = experiment: CD25 and CD69 surface activation markers by flow cytometry; type: cell-based, human; settings: 6, 24 and 48 h post treatment
Protocol: as §1
Untreated or LRA-treated CD4 T cells were stained with CD4-BV605, CD3-Pacific Blue (BD Biosciences) and HLA-ABC-AlexaFluor700 (Biolegend) to assess purity (95–99%) and CD38-FITC, CD69-PE, CD25-PerCpCy5.5 and HLA-DR-APC (BD Biosciences) to measure surface activation marker levels. Cellular activation levels were calculated by first gating on the double negative population of CD25 and CD69 of the non-treated sample on live, CD4- and CD3-positive cells and applying the same gates to the LRA-treated and CD3/CD28-stimulated samples as done in [37]. A similar gating strategy was applied to determine the proportion of CD38- and HLA-DR-positive CD4 T cells.

[6] = over matched DMSO, n = 8–11 healthy donors
[7] = extracts of CD4 T cells treated 48 h, 120-minute degradation, representative experiment

For `CC[C@H](C)[C@H](NC(=O)[C@@H](NC(=O)[C@H](CCC(=O)O)NC(=O)[C@@H]1CCCN1C(=O)[C@H](CO)NC(=O)[C@H](Cc1ccccc1)NC(=O)[C@H](C)NC(=O)[C@@H](N)CCCCN)C(C)C)C(=O)N1CCC[C@H]1C(=O)N[C@@H](CCSC)C(=O)N[C@@H](Cc1ccccc1)C(=O)O` [KF11], the “degradability in the cytosol of primary cells” value [1] is listed as “less degradable”.

With `Cc1[nH]c2ccccc2c1CCNCc1ccc(/C=C/C(=O)NO)cc1` [Panobinostat] the “aminopeptidase hydrolytic activities, average fold change” value [2] was 0.78 fold, the “peptide production at each aa of p24-161-24mer” value [3, 6] was “decreased peptide production at most aa” and the “production of 8-11aa peptides throughout the p24-161-24m sequence” value ([3]; representative experiment) was “reduced”. For the same molecule, the “KF11 and ISW9 peptide equivalent displayed by HIV-infected CD4 T cells” value [4] was “reduction of peptide presentation”, the “score of peptide presentation efficiency (peptide equivalent over HIV infection rate) at 24 hours” value [4] was “second highest” and the “equivalent peptide presented (TW10, ISW9, KF11) at 24 hpi” value [4] was “highest KF11 and ISW9 peptide presentations”. For the same molecule, the “HLA-B57 KF11 epitope production” value [5] was “unchanged”, the “amount of fragments starting at V2, V15, V17 of p24-10-35m” value [5, 7] was “increased” and the “reduction of fragments starting at H3 or N12 of p24-10-35m” value ([5]; extracts of CD4 T cells treated 48 h, 120-minute degradation, representative experiment, versus DMSO) was 10 fold. For the same molecule, the “HLA-B57 ISW9 epitope production” value ([5]; treated extracts over matched DMSO, n = 4–9 donors) was “increased”.

With `CCC/C=C/C=C/C(=O)O[C@H]1/C(=C/C(=O)OC)C[C@H]2C[C@H]([C@@H](C)O)OC(=O)C[C@H](O)C[C@@H]3C[C@H](OC(C)=O)C(C)(C)[C@](O)(C[C@@H]4C/C(=C/C(=O)OC)C[C@H](/C=C/C(C)(C)[C@]1(O)O2)O4)O3` [Bryostatin] the “aminopeptidase hydrolytic activities, average fold change” value [2] was 1.6 fold, the “increase of production of 8-11aa peptides in p24-161-24m” value ([3]; first half of the sequence, representative experiment) was 2- to 5 fold and the “ratio of 8-11aa peptides of p24-161-24m produced in treated over DMSO treated cells” value ([3]; n = 4–10 donors) was “significantly increased”. The “number of significantly changed N- or C-terminal cleavage sites, p24-161-24mer” value [3, 6] was 6, the “score of peptide presentation efficiency (peptide equivalent over HIV infection rate) at 24 hours” value [4] was “lowest” and the “equivalent peptide presented (TW10, ISW9, KF11) at 24 hpi” value [4] was “among the lowest”. For the same molecule, the “efficiency of peptide presentation overtime” value ([4]; 24 to 72 hpi) was “increased”, the “proteasome activities in fibroblasts” value (proteasome) was “can enhance proteasome activities” and the “amount of fragments starting at V2, V15, V17 of p24-10-35m” value [5, 7] was “reduced”. The “difference in amount of 8-11aa peptides of p24-10-35m versus DMSO- or Panobinostat-treated extracts” value ([5]; second half of the sequence, representative experiment) was “up to 5 times”.

For `CCN(CC)C(=S)SSC(=S)N(CC)CC` [Disulfiram], the “proportion of CD25+ and/or CD69+ primary CD4 T cells compared to DMSO-treated cells” value (primary CD4 T cells) is listed as “Neither HDACi nor disulfiram changed the proportion”, the “proteasome activities in cell lines” value (proteasome; effect on NF-κB) is listed as “inhibited proteasome activities” and the “HLA-B57 KF11 epitope production” value [5] is listed as “decreased”. The QW11 epitope production ([5]; treated extracts over matched DMSO, n = 2–6 donors) was “increased”.

For ISPRTLNAW [ISW9], the “degradability in the cytosol of primary cells” value [1] is given as “among the most degradable”.
